{"source": "patent US10149907B2", "about": "“Combinations of a photosensitizer with a hydrogen sulfide donor, thioredoxin inhibitor or nitroxide for use in photodynamic therapy” (UNIVERSITY OF EXETER, priority 2014, dated 2018)", "key": {"[1]": {"test_system": "A431 cells", "assay": "Photodynamic cell killing in the presence of inhibitors of the thioredoxin antioxidant system or nitroxides (annexin V-FITC/propidium iodide flow cytometry)", "type": "cell-based, human"}, "[2]": {"test_system": "A431 cells", "outline": "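In the PDT set-up, cells held at 2% O2 got 1 mM MAL with or without compound for 3 h, then 3 h recovery under 2% O2. Compound-alone cytotoxicity used cells seeded at 3×10^5/well for 24 h, treated for the relevant time.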"}, "[3]": {"test_system": "A431 cells", "assay": "Mitochondrial reactive oxygen species generation during photodynamic irradiation, MitoSOX flow cytometry", "type": "cell-based, human", "settings": "MAL 1 mM + co-treatment 10 μM, 3 hours, irradiated", "outline": "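A431 cells received AP39-C10 (10, 100 or 1000 nM) for 5 h, MAL (1 mM) for 3 h and MitoSOX (2.5 μM) for 1 h, then were irradiated for 5 min (630 nm, 25 J/cm^2). Mitochondrial oxidant production was read immediately as MitoSOX fluorescence by flow cytometry and expressed as percent of untreated controls.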"}, "[4]": {"target": "T1, thioredoxin reductase (Homo sapiens, UniProt Q16881)", "T1 sequence (Q16881 151-649 limits assumed)": "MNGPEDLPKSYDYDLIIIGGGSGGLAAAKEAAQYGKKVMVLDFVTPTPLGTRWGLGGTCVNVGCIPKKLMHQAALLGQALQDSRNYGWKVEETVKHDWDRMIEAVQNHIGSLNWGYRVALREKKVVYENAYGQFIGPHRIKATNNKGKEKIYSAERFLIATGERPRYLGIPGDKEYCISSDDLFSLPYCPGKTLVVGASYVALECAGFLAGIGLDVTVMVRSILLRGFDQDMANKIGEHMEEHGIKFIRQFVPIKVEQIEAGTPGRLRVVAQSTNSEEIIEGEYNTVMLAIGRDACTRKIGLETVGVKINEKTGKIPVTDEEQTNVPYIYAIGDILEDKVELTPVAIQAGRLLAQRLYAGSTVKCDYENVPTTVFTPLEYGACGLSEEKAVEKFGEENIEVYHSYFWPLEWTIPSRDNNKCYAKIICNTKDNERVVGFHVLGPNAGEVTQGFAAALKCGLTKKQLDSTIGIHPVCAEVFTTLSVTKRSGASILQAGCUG", "settings": "cited from earlier work"}}, "note": "Where “and” joins values, the source holds several entries; their conditions need not be identical. Equal entries are not always repeated. Where two headings read alike, the source gives them in different places.", "data": [{"smiles": "O=[N+]([O-])c1ccc(Cl)c([N+](=O)[O-])c1", "note": "[DNCB, 1-chloro-2,4-dinitrobenzene]", "values": [{"measurement": "modes of cell death", "setting": "[1]; 1 mM MAL + DNCB 10 μM or auranofin 100 nM + irradiation, compared to MAL and irradiation, FIG. 10", "result": "primarily increased necrotic cell death"}, {"measurement": "cell death", "setting": "[1]; 1 mM MAL + co-treatment 10 μM, 3 h, irradiation", "result": "46.3±4.0% and 43.8±3.9%"}, {"measurement": "potentiating effect on MAL photodynamic cell killing", "setting": "[1]; summary of Examples 2A, 3A", "result": "mild potentiating effect"}, {"measurement": "cell viability, percentage of untreated control", "setting": "[2]; 1 μM with 1 mM MAL, 3 hours", "result": "97.4±6.9", "unit": "%"}, {"measurement": "cell viability, percentage of untreated control", "setting": "[2]; 5 μM with 1 mM MAL, 3 hours", "result": "99.4±7.3", "unit": "%"}, {"measurement": "cell viability, percentage of untreated control", "setting": "[2]; 10 μM with 1 mM MAL, 3 hours", "result": "98.6±6.2", "unit": "%"}, {"measurement": "cell viability, percentage of untreated control", "setting": "[2]; 25 μM with 1 mM MAL, 3 hours", "result": "79.0±4.3", "unit": "%"}, {"measurement": "cell viability, percentage of untreated control", "setting": "[2]; 50 μM with 1 mM MAL, 3 hours", "result": "57.7±1.4", "unit": "%"}, {"measurement": "cell viability, percentage of untreated control", "setting": "[2]; 50 μM, 24 hours", "result": "11.7±0.8", "unit": "%"}, {"measurement": "cell viability, percentage of untreated control", "setting": "[2]; 100 μM, 24 hours", "result": "14.8±4.2", "unit": "%"}, {"measurement": "concentration up to which well tolerated / no cytotoxicity", "setting": "[2]; 24 hours", "result": "up to 10 μM"}, {"measurement": "MitoSOX fluorescence, percentage of untreated cells", "setting": "[3]", "result": "209.5±3.2", "unit": "%"}, {"measurement": "inactivation of reduced thioredoxin reductase", "setting": "[4]; 50 nM reduced enzyme, 5 minutes incubation with 100 μM DNCB, presence of NAD(P)H", "result": "Complete inactivation"}, {"measurement": "inactivation of thioredoxin reductase faster than the alkylation of GSH", "setting": "[4]", "result": "~10,000 fold"}]}]}
